The test concerns the target JAK2 (Homo sapiens, UniProt O60674). In words: JAK2 Tyrosine Kinase Assay. The format is biochemical. As to conditions: list of named compounds; read-out: IC50 in the JAK2 assay. The method, boiled down: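 Reaction of JAK2 with fluorescent substrate run 60 min at room temperature and stopped with EDTA. Substrate and phosphorylated product separated electrophoretically on a Caliper LabChip. Compounds tested at eleven concentrations in duplicate, with IC50 from non-linear regression.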

JAK2, sequence (O60674 whole entry): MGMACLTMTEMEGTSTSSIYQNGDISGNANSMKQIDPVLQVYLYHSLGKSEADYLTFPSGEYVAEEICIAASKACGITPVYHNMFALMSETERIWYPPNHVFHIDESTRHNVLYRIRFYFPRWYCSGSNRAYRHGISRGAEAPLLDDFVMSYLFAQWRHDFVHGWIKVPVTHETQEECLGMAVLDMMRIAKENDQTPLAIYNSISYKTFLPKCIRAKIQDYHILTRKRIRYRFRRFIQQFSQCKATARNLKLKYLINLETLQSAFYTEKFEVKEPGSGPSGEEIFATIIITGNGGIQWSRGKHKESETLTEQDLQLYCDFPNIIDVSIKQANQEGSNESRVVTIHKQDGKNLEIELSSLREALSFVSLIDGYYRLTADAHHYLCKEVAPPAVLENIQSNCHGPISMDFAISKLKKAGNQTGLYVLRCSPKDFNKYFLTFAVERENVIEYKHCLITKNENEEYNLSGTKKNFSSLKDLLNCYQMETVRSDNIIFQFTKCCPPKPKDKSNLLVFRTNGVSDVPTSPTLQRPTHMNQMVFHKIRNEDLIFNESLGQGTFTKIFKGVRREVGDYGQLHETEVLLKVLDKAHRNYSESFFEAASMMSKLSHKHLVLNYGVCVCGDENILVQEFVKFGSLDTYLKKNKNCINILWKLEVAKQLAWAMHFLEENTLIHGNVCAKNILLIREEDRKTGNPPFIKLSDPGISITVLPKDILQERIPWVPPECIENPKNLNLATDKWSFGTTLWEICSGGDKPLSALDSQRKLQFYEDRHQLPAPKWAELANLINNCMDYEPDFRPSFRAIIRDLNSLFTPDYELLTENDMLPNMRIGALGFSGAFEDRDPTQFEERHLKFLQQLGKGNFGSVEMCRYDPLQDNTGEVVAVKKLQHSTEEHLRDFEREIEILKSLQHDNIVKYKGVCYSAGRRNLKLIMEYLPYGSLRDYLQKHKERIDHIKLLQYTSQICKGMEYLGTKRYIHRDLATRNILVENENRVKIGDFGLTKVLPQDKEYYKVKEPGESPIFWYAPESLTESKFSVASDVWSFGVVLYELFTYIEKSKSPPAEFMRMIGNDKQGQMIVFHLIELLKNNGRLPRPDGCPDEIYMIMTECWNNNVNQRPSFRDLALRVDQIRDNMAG

As to `Cc1cc(Nc2nc(N3CCN(C(=O)C(NC(=O)OC(C)(C)C)c4ccc(Cl)cc4)CC3)nn3cccc23)n[nH]1` (stereo not shown) [tert-butyl (1-(4-chlorophenyl)-2-(4-(4-((5-methyl-1H-pyrazol-3-yl)amino)pyrrolo[2,1-f][1,2,4]triazin-2-yl)-1-piperazinyl)-2-oxoethyl)carbamate], the IC50 was at most 5 nM.

Turning to `Cc1cc(Nc2nc(N3CCN(C(=O)Cc4cccc(C#N)c4)CC3)nn3cccc23)n[nH]1` [3-(2-(4-(4-((5-methyl-1H-pyrazol-3-yl)amino)pyrrolo[2,1-f][1,2,4]triazin-2-yl)-1-piperazinyl)-2-oxoethyl)benzonitrile], the IC50 was at most 5 nM.

Turning to `Cc1cc(Nc2nc(N3CCN(C(=O)C4(C#N)CC4)CC3)nn3cccc23)n[nH]1` [1-((4-(4-((5-methyl-1H-pyrazol-3-yl)amino)pyrrolo[2,1-f][1,2,4]triazin-2-yl)-1-piperazinyl)carbonyl)cyclopropanecarbonitrile], the IC50 was at most 5 nM.

As for `Cc1cc(Nc2nc(N3CCN(C(=O)COCc4ccccc4)CC3)nn3cccc23)n[nH]1` [2-(4-((benzyloxy)acetyl)-1-piperazinyl)-N-(5-methyl-1H-pyrazol-3-yl)pyrrolo[2,1-f][1,2,4]triazin-4-amine], the IC50 was at most 5 nM.

As to `Cc1cc(Nc2nc(N3CCN(C(=O)C(O)c4ccc(Cl)cc4)CC3)nn3cccc23)n[nH]1` (stereo not shown) [1-(4-chlorophenyl)-2-(4-(4-((5-methyl-1H-pyrazol-3-yl)amino)pyrrolo[2,1-f][1,2,4]triazin-2-yl)-1-piperazinyl)-2-oxoethanol], the IC50 was at most 5 nM.

For `Cc1cc(Nc2nc(N3CCN(C(=O)c4cc[nH]n4)CC3)nn3cccc23)n[nH]1` [N-(5-methyl-1H-pyrazol-3-yl)-2-(4-(1H-pyrazol-3-ylcarbonyl)-1-piperazinyl)pyrrolo[2,1-f][1,2,4]triazin-4-amine], the IC50 was at most 5 nM.

On to `CCC(C)(C)C(=O)N1CCN(c2nc(Nc3cc(C)[nH]n3)c3cccn3n2)CC1` [2-(4-(2,2-dimethylbutanoyl)-1-piperazinyl)-N-(5-methyl-1H-pyrazol-3-yl)pyrrolo[2,1-f][1,2,4]triazin-4-amine], for which the IC50 is at most 5 nM.

In the case of `Cc1cc(Nc2nc(N3CCN(C(=O)c4ccccc4Br)CC3)nn3cccc23)n[nH]1` [2-(4-(2-bromobenzoyl)-1-piperazinyl)-N-(5-methyl-1H-pyrazol-3-yl)pyrrolo[2,1-f][1,2,4]triazin-4-amine], the IC50 was at most 5 nM.

For the molecule `Cc1cc(Nc2nc(N3CCN(C(=O)C(C)c4ccc(Cl)cc4)CC3)nn3cccc23)n[nH]1` (stereo not shown) [2-(4-(2-(4-chlorophenyl)propanoyl)-1-piperazinyl)-N-(5-methyl-1H-pyrazol-3-yl)pyrrolo[2,1-f][1,2,4]triazin-4-amine], the IC50 is at most 5 nM.

Regarding `CO[C@](C(=O)N1CCN(c2nc(Nc3cc(C)[nH]n3)c3cccn3n2)CC1)(c1ccccc1)C(F)(F)F` [N-(5-methyl-1H-pyrazol-3-yl)-2-(4-((2S)-3,3,3-trifluoro-2-methoxy-2-phenylpropanoyl)-1-piperazinyl)pyrrolo[2,1-f][1,2,4]triazin-4-amine], the IC50 is at most 5 nM.

`Cc1cc(Nc2nc(N3CCN(C(=O)c4ccccc4NC(=O)OC(C)(C)C)CC3)nn3cccc23)n[nH]1` [tert-butyl (2-((4-(4-((5-methyl-1H-pyrazol-3-yl)amino)pyrrolo[2,1-f][1,2,4]triazin-2-yl)-1-piperazinyl)carbonyl)phenyl)carbamate]: the IC50 is at most 5 nM.

Consider `Cc1cc(Nc2nc(N3CCN(C(=O)C4(C)CC4)CC3)nn3cccc23)n[nH]1` [2-(4-((1-methylcyclopropyl)carbonyl)-1-piperazinyl)-N-(5-methyl-1H-pyrazol-3-yl)pyrrolo[2,1-f][1,2,4]triazin-4-amine], for which the IC50 was at most 5 nM.

As to `Cc1cc(Nc2nc(N3CCN(C(=O)c4cnco4)CC3)nn3cccc23)n[nH]1` [N-(5-methyl-1H-pyrazol-3-yl)-2-(4-(1,3-oxazol-5-ylcarbonyl)-1-piperazinyl)pyrrolo[2,1-f][1,2,4]triazin-4-amine], the IC50 is at most 5 nM.

For the origin of these results see patent publication US8445676B2, “Pyrrolotriazine kinase inhibitors” (Bristol-Myers Squibb Company, priority 2008, dated 2013).
